One series deals with KG1a leukemic cells. Put plainly: Cell cycle analysis with propidium iodide. In kind it is cell-based, human. The following applies: 5 and 10 nM, 48 hours.
For series [1], the system named is leukemic cells. Put plainly: Comet assay for DNA damage. In kind it is cell-based, human. To be noted: after CA4P treatment. As to the method:
DNA damage in CA4P-incubated leukemic cells was assessed by comet assay. The concept behind this assay is based upon the ability of denatured, cleaved DNA fragments to migrate out of the cell under the influence of an electric field, whereas undamaged DNA migrates more slowly and remains within the confines of the nucleus. Evaluation of the DNA “comet” tail shape and migration pattern allows for assessment of DNA damage. Results were expressed as the percentage of cells with a comet tail in 100 randomly selected, non-overlapping cells visualized by standard light microscopy. […] Results of three experiments in duplicate are expressed as the mean of the number of cells with a comet tail (%)±SEM (*p<0.05 as compared with CA4P-untreated cells; n=3).

Another series deals with AML cell lines. Kind of series: Annexin-V/propidium iodide apoptosis by flow cytometry. In kind it is cell-based, human. The following applies: 48 hours. As to the method:
CA4P-treated AML cells were subjected to Annexin-V/propidium iodide (PI) staining and quantification by flow cytometry. Combretastatin A-4 phosphate (CA4P) induces caspase-independent apoptosis in leukemic cells. CA4P induces apoptosis of leukemic cells. Leukemic cells were treated with or without CA4P for 48 hours and the percentage of apoptotic leukemic cells was determined by Annexin V and propidium iodide staining using flow cytometry. Results are representative of three independent experiments. […] In the majority of AML cell lines tested, CA4P at a concentration of 5 nM induced phosphatidylserine externalization (Annexin V+) in more than 50% of the leukemic cells.
In general terms: Flow cytometry measures light scatter and fluorescence of single cells or particles in a stream.

For series [2], the system named is leukemic cells. Put plainly: Intracellular ROS detection with H2DCFDA. In kind it is cell-based, human. To be noted: after CA4P exposure. As to the method: Intracellular ROS were detected as previously described (Krejsa & Schieven, Methods Mol Biol 99:35-47 (2000)). Briefly, leukemic cells were loaded with 2 μM H2DCFDA (Molecular Probes) in assay buffer (RPMI with 10 mM HEPES) for 30 min. at 37° C. and mean fluorescent intensity was measured by flow cytometry. Results are shown from triplicate measurements (±SEM) and are representative of three independent experiments (*p<0.05 as compared with untreated cells; n=3).

The test system of the next series is GFP+HL60 cells. Put plainly: Systemic in vivo leukemia model, GFP+HL60. Also noted: species or system NOD-SCID mice. As to the method: NOD-SCID mice were intravenously inoculated with 1×10^7 GFP+HL60 cells. The HL60 cells were labeled with green fluorescent protein (GFP) by a lentiviral construct, and inoculated systemically through tail vein injection. Three days after inoculation, mice were divided into 2 groups of five mice. One group was treated every other day with PBS (control) and the second group received 25 mg/kg CA4P every other day. Each experiment was done three times. At day 30 after the start of the experiment, two mice from each group were killed, and their organs (spleen, liver and lung), peripheral blood and marrow of surgically removed femurs were collected, and analyzed for the presence of human leukemic cells by flow cytometry. Single cell suspension was stained using phytoerythrin-labeled anti-human CD45 mAb (Pharmingen), and the percentage of double positive human CD45-PE and GFP cells was determined flow cytometer. The extent of GFP+HL60 cell infiltration was assessed by fluorescence microscopy. In a second set of experiments, GFP+U937 cells were used instead of HL60 cells, and the animals sacrificed after 30 days.
In the untreated control group, the mice survived for 32-40 days only and succumbed to systemic spread of leukemia. […] This increase in survival was accompanied by a decrease in circulating leukemic cells observed 30 days after leukemic cell injection, as assessed by flow cytometry determination of double positive cells for human CD45 and GFP (0.9% for control vs. 0.2% for CA4P treatment, p<0.05, n=5) (FIG. 12). Thirty days after xenotransplantation of GFP+HL60 cell injection, the presence of GFP+HL60 cells in the peripheral blood and the different tissues of the mice was assessed by quantification of double positive GFP and human CD45 cells by flow cytometry. […] In contrast, control mice had massive leukemic infiltrates in the spleen (5.2%), liver (2.6%) and lung (3.5%) (FIG. 12).

The subject of another series is VCAM-1. Put plainly: VCAM-1 immunofluorescence in subcutaneous HL60 AML tumors. The following applies: data not shown. In kind it is in vivo, NOD-SCID mice. Here is the method:
CA4P may modulate leukemia-vascular interactions, thereby disrupting chemo-protected niches for leukemic cells. […] NOD-SCID mice with subcutaneous HL60 AML tumors were treated with CA4P or PBS (untreated control).

Series [3] has as its system HL60 and U937 AML cells on HUVECs. Kind of series: Leukemic cell adhesion to and co-culture with HUVECs. In kind it is cell-based, human. As to the method:
To assess leukemic cell adhesion, 1×10^5 GFP+HL60 or U937 cells in X-vivo/5% FBS were added per well. The percentage of GFP++adherent cells was quantified by fluorescent microscopy. To compare the resistance of vascular-adherent to non-adherent leukemic cells in co-culture, leukemic cells were seeded on either IL-1β-activated or non-activated HUVECs, with addition of CA4P. After 48 hours, GFP++leukemic cells were removed from the wells by trypsinization and quantified by fluorescence microscopy and flow cytometry. […] The number of adherent cells is expressed as a percentage of total leukemic cells and representative of three independent experiments performed in triplicate SEM (*p<0.05 as compared to CA4P-untreated control).
Survival of GFP+U937 (E) and HL60 (F) leukemic cells co-cultured with HUVECs is expressed as a percentage of total cells. Adherent (i.e. attached to IL-1β activated HUVECs) and non-adherent leukemic cells (i.e. cultured with non-activated HUVECs) are depicted. Results are representative of three independent experiments performed in triplicate±SEM (*p<0.05).

A short description of series [4]: Bone marrow toxicity, serial complete blood counts. In kind it is in vivo, CD1 mice. The following applies: 25 mg/kg subcutaneously every other day for 4 weeks. Here is the method:
Eight week-old sex matched CD1 mice (Jackson Laboratory, Bar Harbor, Me.) were treated with CA4P at 25 mg/kg subcutaneously every other day for 4 weeks.

Setting [5] is: day 30, 25 mg/kg every other day.

Turning to `COc1ccc(/C=C\c2cc(OC)c(OC)c(OC)c2)cc1OP(=O)(O)O` [CA4P, combretastatin A-4 phosphate], the cell cycle effect entry in the series on KG1a leukemic cells is reported as “G2/M arrest”. Moreover, in the series with leukemic cells [1], the “number of leukemic cells displaying a comet tail” value is reported as “strongly increased”. For the same compound, in the series with AML cell lines (5 nM, majority of AML cell lines tested), the “leukemic cells with phosphatidylserine externalization (Annexin V+)” value is listed as “more than 50%”. For the same compound, the “PI+, Annexin V(−) cells (necrotic)” value with AML cell lines was “Only a small number”. The “intracellular ROS (H2DCFDA fluorescence)” value with leukemic cells [2] is “rapid accumulation of superoxide anions”. The “survival of intravenously xenotransplanted mice” value in the series on GFP+HL60 cells (25 mg/kg every other day) is given as “significantly increased survival”. Further, in the series with GFP+HL60 cells (setting [5]), the “circulating leukemic cells (human CD45 and GFP double positive) in peripheral blood” value amounted to 0.2%; the “engraftment of leukemic cells in the bone marrow” value was “completely eradicated”; the “human CD45 and GFP positive cells in the liver” value was determined as 0.1%; the “infiltration of GFP+HL60 cells in the lung” value was “no evidence of infiltration”. The “infiltration of GFP+HL60 cells in the spleen” value with GFP+HL60 cells (setting [5]) is “no evidence of infiltration”. The “VCAM-1 expression in tumors” value with VCAM-1 was “significantly decreased VCAM-1 expression”. In addition, the “attachment of HL60 and U937 AML cells to HUVECs” value in series [3] (in vitro) was “decreased attachment”. Besides, in series [3] (non-adherent vs adherent to IL-1β activated HUVECs, 48 hours), the “sensitivity of leukemic cells to CA4P with decreased adhesion to HUVECs” value is “more sensitive”. Moreover, the “WBC and absolute neutrophil count” value in series [4] is listed as “slight decrease”.

Values taken from patent US20090264382A1, “Methods for Treating Hematopoietic Neoplasms” (priority 2007, published 2009).
